*1 amine or outer side, *2 acyl side, *3 side chain or, on linkers, in order; H or OH if unused. Where a SMILES comes first, the peptide text is derived from it. [ ]: non-standard residue; d: D form. X1 = O=C([C@H](CSS(=O)(=O)O)N[*:1])[*:2]
Experiments:
[1] = Stability test in frozen state (residual amount by reverse HPLC); type: physicochemical; details: -80° C., 5 months, compared to native calcitonin-I
Method: First, 50 μg each of the diS-sulfonated salmon calcitonin-I and salmon calcitonin-I were separately dissolved in 100 μl of 2.5 mM citrate (pH 2.8) buffer, and the solutions were frozen and stored at -80° C. After 5 months, the frozen samples were thawed, and residual diS-sulfonated salmon calcitonin-I and salmon calcitonin-I were measured by reverse HPLC.

[2] = Stability test in liquid form (residual amount by reverse HPLC); type: physicochemical; details: 37° C., 2 weeks, compared to native salmon calcitonin-I
Method: First, 50 μg each of the diS-sulfonated salmon calcitonin-I and salmon calcitonin-I were separately dissolved in 100 μl of 50 mM Tris-Hcl buffer solution (pH 7.2), and the solutions were stored at 37° C. After 2 weeks, the residual diS-sulfonated salmon calcitonin-I and salmon calcitonin-I were measured by reverse HPLC.

Compound: CC(C)C[C@H](NC(=O)[C@H](CCCCN)NC(=O)CNC(=O)[C@H](CC(C)C)NC(=O)[C@@H](NC(=O)[C@H](CSS(=O)(=O)O)NC(=O)[C@@H](NC(=O)[C@H](CO)NC(=O)[C@H](CC(C)C)NC(=O)[C@H](CC(N)=O)NC(=O)[C@H](CO)NC(=O)[C@@H](N)CSS(=O)(=O)O)[C@@H](C)O)C(C)C)C(=O)N[C@@H](CO)C(=O)N[C@@H](CCC(N)=O)C(=O)N[C@@H](CCC(=O)O)C(=O)N[C@@H](CC(C)C)C(=O)N[C@@H](Cc1c[nH]cn1)C(=O)N[C@@H](CCCCN)C(=O)N[C@@H](CC(C)C)C(=O)N[C@@H](CCC(N)=O)C(=O)N[C@H](C(=O)N[C@@H](Cc1ccc(O)cc1)C(=O)N1CCC[C@H]1C(=O)N[C@@H](CCCNC(=N)N)C(=O)N[C@H](C(=O)N[C@@H](CC(N)=O)C(=O)N[C@H](C(=O)NCC(=O)N[C@@H](CO)C(=O)NCC(=O)N[C@H](C(=O)N1CCC[C@H]1C(N)=O)[C@@H](C)O)[C@@H](C)O)[C@@H](C)O)[C@@H](C)O [diS-sulfonated salmon calcitonin-I] (H-[X1]SNLST[X1]VLGKLSQELHKLQTYPRTNTGSGTP-NH2)
- Stability in the frozen state (in words) [1]: remarkably stable
- Stability in a solution (in words) [2]: remarkably stable

From patent US5153308A, “S-sulfonated calcitonin derivatives” (Teijin Limited, priority 1988, dated 1992)
